Tested on: HCV replicon

Cn1cnc([N+](=O)[O-])c1Sc1ncnc2[nH]cnc12 [AZA]
fewer cells (toxicity): ~10%

Reference: patent publication US20100284966A1 (priority 2005, published 2010)
